The source of these data is patent US20040152119A1, “Solid phase sequencing” (priority 2003, published 2004).

The test deals with cloned DNA polymerase I genetically engineered to eliminate 3′-5′ exonuclease activity, 5′-3′exonuclease activity and discrimination against dideoxynucleotides. Description: Nucleic acid sequence detection by polymerase incorporation of gamma-phosphate-labeled dideoxynucleotide in the presence of shrimp alkaline phosphatase (fluorescence). The conditions noted are these: 23° C.; for dye emission with Primer: Template 1: next template nucleotide dC (SEQ ID NO: 2); for dye emission with Primer: Template 2: next template nucleotide dT (SEQ ID NO: 3). In kind it is biochemical. Here is the method: Reactions were assembled at room temperature (23° C.) using the dideoxynucleotide of Example (1). Reactions contained primer template combinations having a single oligonucleotide primer (represented by SEQ ID NO: 1) annealed to one of two different oligonucleotide templates with either a dC or a dT as the next template nucleotide adjacent the 3′ terminus of the primer, corresponding to SEQ ID NO: 2 and SEQ ID NO: 3, respectively.
Referring now to FIG. 1, for template 1 (SEQ ID NO: 2) in the present example, DNA polymerase would be expected to extend the primer with labeled ddGTP. Similarly, for template 2 (SEQ ID NO: 3) in FIG. 1, DNA polymerase would be expected to extend the primer with ddATP, but not with labeled ddGTP.
Reaction conditions: A 70 μl reaction containing 25 mM Tris, pH 8.0, 5% glycerol 5 mM MgC12, 0.5 mM beta-mercaptoethanol, 0.01% tween-20, 0.25 units shrimp alkaline phosphatase, 100 nM primer annealed to template (the next template nucleotide is either dCMP or dTMP, as indicated), and 2 μM ddGTP-CF3-Coumarin was assembled in a quartz fluorescence ultra-microcuvet in a LS-55 Luminescence Spectrometer (Perkin Elmer), operated in time drive mode. Excitation and emission wavelengths are 390 nm and 500 nm respectively. Slit widths were 5 nm for excitation slits, 15 nm for emission slits. The reaction was initiated by the addition of 0.35 μl (11 units) of a cloned DNA polymerase I genetically engineered to eliminate 3′-5′ exonuclease activity, 5′-3′exonuclease activity and discrimination against dideoxynucleotides and 0.25 mM MnCl2. […]

The mark [1] stands for this setting: 2 μM ddATP-CN-Coumarin, excitation 410 nm, emission 450 nm, FIG. 2.
The mark [2] stands for this setting: 2 μM ddGTP-CF3-Coumarin, excitation 390 nm, emission 500 nm, FIG. 1.

With `N#Cc1cc2ccc(OP(=O)(O)OP(=O)(O)OP(=O)(O)OC[C@@H]3CC[C@H](n4cnc5c(N)ncnc54)O3)cc2oc1=O` [gamma labeled ddATP, γ-(3-Cyanocoumarinyl)ddATP], under setting [1], the “dye emission with Primer: Template 1” value is reported as “No detectable dye emission” and the “dye emission with Primer: Template 2” value is “dye emission was detected”.
With `Nc1nc2c(ncn2[C@H]2CC[C@@H](COP(=O)(O)OP(=O)(O)OP(=O)(O)Oc3ccc4c(C(F)(F)F)cc(=O)oc4c3)O2)c(=O)[nH]1` [gamma labeled ddGTP, γ-(4-trifluoromethylcoumarinyl)ddGTP], under setting [2], the “dye emission with Primer: Template 1” value is given as “dye emission was detected” and the “dye emission with Primer: Template 2” value is listed as “No detectable dye emission”.
